Patent US10758534B2 (Vertex Pharmaceuticals Incorporated, priority 2014, dated 2020)

Each molecule was assayed against T1, F508del (Homo sapiens, UniProt P13569, DEL508-508) (assay: Protocol 2: FRET membrane potential optical assay (VIPR), identification of correction compounds). Settings: F508del CFTR modulator activity; compounds of Table 1.
T1 construct: expressed in transfected cells
Assay type: cell-based
Description: Membrane potential optical methods for assaying F508del modulation properties of compounds.
These voltage sensitive assays are based on the change in fluorescence resonant energy transfer (FRET) between the membrane-soluble, voltage-sensitive dye, DiSBAC2(3), and a fluorescent phospholipid, CC2-DMPE, which is attached to the outer leaflet of the plasma membrane and acts as a FRET donor. Changes in membrane potential (Vm) cause the negatively charged DiSBAC2(3) to redistribute across the plasma membrane and the amount of energy transfer from CC2-DMPE changes accordingly. The changes in fluorescence emission were monitored using VIPR™ II, which is an integrated liquid handler and fluorescent detector designed to conduct cell-based screens in 96- or 384-well microtiter plates.
To identify small molecules that correct the trafficking defect associated with F508del; a single-addition HTS assay format was developed. The cells were incubated in serum-free medium for 16 hrs at 37° C. in the presence or absence (negative control) of test compound. As a positive control, cells plated in 384-well plates were incubated for 16 hrs at 27° C. to “temperature-correct” F508del. The cells were subsequently rinsed 3× with Krebs Ringers solution and loaded with the voltage-sensitive dyes. To activate F508del, 10 μM forskolin and the CFTR potentiator, genistein (20 μM), were added along with Cl^−-free medium to each well. The addition of Cl^−-free medium promoted Cl^− efflux in response to F508del activation and the resulting membrane depolarization was optically monitored using the FRET-based voltage-sensor dyes.
• Bath Solution #1: (in mM) NaCl 160, KCl 4.5, CaCl2 2, MgCl2 1, HEPES 10, pH 7.4 with NaOH. • Chloride-free bath solution: Chloride salts in Bath Solution #1 (above) are substituted with gluconate salts. • CC2-DMPE: Prepared as a 10 mM stock solution in DMSO and stored at −20° C. • DiSBAC2(3): Prepared as a 10 mM stock in DMSO and stored at −20° C. Cell Culture
NIH3T3 mouse fibroblasts stably expressing F508del are used for optical measurements of membrane potential. The cells are maintained at 37° C. in 5% CO2 and 90% humidity in Dulbecco's modified Eagle's medium supplemented with 2 mM glutamine, 10% fetal bovine serum, 1×NEAA, β-ME, 1× pen/strep, and 25 mM HEPES in 175 cm^2 culture flasks. For all optical assays, the cells were seeded at 30,000/well in 384-well matrigel-coated plates and cultured for 2 hrs at 37° C. before culturing at 27° C. for 24 hrs for the potentiator assay. For the correction assays, the cells are cultured at 27° C. or 37° C. with and without compounds for 16-24 hours.

T1 sequence (P13569 with tags, fused parts or gaps DEL508-508): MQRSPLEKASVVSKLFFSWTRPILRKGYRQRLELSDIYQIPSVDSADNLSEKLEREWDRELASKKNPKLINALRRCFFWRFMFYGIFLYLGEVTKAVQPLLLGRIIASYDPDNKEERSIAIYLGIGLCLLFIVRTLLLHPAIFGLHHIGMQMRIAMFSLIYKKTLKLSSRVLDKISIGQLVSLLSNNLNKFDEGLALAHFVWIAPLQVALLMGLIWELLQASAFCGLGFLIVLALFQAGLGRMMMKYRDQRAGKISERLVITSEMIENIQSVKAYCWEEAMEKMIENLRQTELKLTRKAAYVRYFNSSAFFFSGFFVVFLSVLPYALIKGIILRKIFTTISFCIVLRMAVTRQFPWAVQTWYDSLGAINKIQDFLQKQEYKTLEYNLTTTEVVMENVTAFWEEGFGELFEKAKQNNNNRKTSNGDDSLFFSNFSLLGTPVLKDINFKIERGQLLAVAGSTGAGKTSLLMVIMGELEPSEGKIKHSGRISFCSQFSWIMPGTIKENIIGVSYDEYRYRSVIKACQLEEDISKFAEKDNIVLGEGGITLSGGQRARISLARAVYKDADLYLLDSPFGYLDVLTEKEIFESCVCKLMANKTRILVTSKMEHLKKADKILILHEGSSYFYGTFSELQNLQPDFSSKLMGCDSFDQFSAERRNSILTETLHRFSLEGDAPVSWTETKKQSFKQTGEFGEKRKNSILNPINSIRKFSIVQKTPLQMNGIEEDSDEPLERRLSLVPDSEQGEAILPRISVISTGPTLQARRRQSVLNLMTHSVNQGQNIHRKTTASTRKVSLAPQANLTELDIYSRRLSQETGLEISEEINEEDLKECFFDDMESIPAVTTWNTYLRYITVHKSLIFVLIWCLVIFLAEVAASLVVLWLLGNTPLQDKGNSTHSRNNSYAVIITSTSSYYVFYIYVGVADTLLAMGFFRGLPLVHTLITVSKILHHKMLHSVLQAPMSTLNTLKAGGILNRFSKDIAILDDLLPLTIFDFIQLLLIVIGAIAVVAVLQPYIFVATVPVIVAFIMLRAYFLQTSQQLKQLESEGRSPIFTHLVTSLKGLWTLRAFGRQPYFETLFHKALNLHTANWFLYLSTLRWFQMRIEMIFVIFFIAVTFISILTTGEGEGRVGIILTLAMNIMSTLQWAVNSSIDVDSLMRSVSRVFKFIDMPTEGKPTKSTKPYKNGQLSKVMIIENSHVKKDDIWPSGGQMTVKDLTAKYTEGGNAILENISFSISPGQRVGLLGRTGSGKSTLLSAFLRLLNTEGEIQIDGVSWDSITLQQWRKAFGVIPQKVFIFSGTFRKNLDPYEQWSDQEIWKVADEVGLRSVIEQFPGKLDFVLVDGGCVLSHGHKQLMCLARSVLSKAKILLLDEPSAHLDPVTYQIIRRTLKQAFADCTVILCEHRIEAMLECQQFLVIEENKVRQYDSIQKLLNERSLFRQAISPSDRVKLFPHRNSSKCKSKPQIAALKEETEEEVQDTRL

Structure (SMILES) | EC30
CC(C)COc1cc(F)cc(-c2ccc(C(=O)NS(=O)(=O)c3cccc(N)n3)c(C3=CC(C)CC3(C)C)n2)c1 (single isomer, unassigned) [Compound 2081, N-[(6-amino-2-pyridyl)sulfonyl]-6-(3-fluoro-5-isobutoxy-phenyl)-2-(3,5,5-trimethylcyclopenten-1-yl)pyridine-3-carboxamide] | +++ (“+++” means <3 uM)
CC(C)COc1cc(F)cc(-c2ccc(C(=O)NS(=O)(=O)c3cccc(N)n3)c(N3CCC(C)C(C)C3)n2)c1 (single isomer, unassigned) [Compound 2178, N-[(6-amino-2-pyridyl)sulfonyl]-2-(3,4-dimethyl-1-piperidyl)-6-(3-fluoro-5-isobutoxy-phenyl)pyridine-3-carboxamide] | +++ (“+++” means <3 uM)
CC(C)COc1cc(F)cc(-c2ccc(C(=O)NS(=O)(=O)c3cccc(N)n3)c(C3CC(C)(C)CC3(C)C)n2)c1 (single isomer, unassigned) [Compound 2492, N-[(6-amino-2-pyridyl)sulfonyl]-6-(3-fluoro-5-isobutoxy-phenyl)-2-(2,2,4,4-tetramethylcyclopentyl)pyridine-3-carboxamide] | +++ (“+++” means <3 uM)
CC(C)COc1cc(F)cc(-c2ccc(C(=O)NS(=O)(=O)c3cccc(N)n3)c(N3CCC(C)C(C)C3)n2)c1 (single isomer, unassigned) [Compound 2532, N-[(6-amino-2-pyridyl)sulfonyl]-2-(3,4-dimethyl-1-piperidyl)-6-(3-fluoro-5-isobutoxy-phenyl)pyridine-3-carboxamide] | +++ (“+++” means <3 uM)

Same assay, conditions: F508del CFTR modulator activity; compounds of Table 1; read-out: EC30

Structure (SMILES) | EC30
CC(C)(C)c1ccc(C(=O)NS(=O)(=O)c2cccc(N)n2)c(N2CCC(C3CC3)C2(C)C)n1 (single isomer, unassigned) [Compound 2022, N-[(6-amino-2-pyridyl)sulfonyl]-6-tert-butyl-2-(3-cyclopropyl-2,2-dimethyl-pyrrolidin-1-yl)pyridine-3-carboxamide] | < 3 µM
CC(C)COc1cc(F)cc(-c2ccc(C(=O)NS(=O)(=O)c3cccc(N)n3)c(C3=CC(C)CC3(C)C)n2)c1 (single isomer, unassigned) [Compound 2039, N-[(6-amino-2-pyridyl)sulfonyl]-6-(3-fluoro-5-isobutoxy-phenyl)-2-(3,5,5-trimethylcyclopenten-1-yl)pyridine-3-carboxamide] | < 3 µM
CCC1(C)C[C@@H](C)CN1c1nc(-c2cc(F)cc(OCC(C)C)c2)ccc1C(=O)NS(=O)(=O)c1cccc(N)n1 (single isomer, unassigned) [Compound 2058, N-[(6-amino-2-pyridyl)sulfonyl]-2-(2-ethyl-2,4-dimethyl-pyrrolidin-1-yl)-6-(3-fluoro-5-isobutoxy-phenyl)pyridine-3-carboxamide] | < 3 µM
CC(C)COc1cc(F)cc(-c2ccc(C(=O)NS(=O)(=O)c3cccc(N)n3)c(N3CCC(C)C(C)C3)n2)c1 (single isomer, unassigned) [Compound 2062, N-[(6-amino-2-pyridyl)sulfonyl]-2-(3,4-dimethyl-1-piperidyl)-6-(3-fluoro-5-isobutoxy-phenyl)pyridine-3-carboxamide] | < 3 µM
C[C@@H]1CN(c2nc(C(C)(C)C)c([C@@H](O)[C@H](O)C3CCCC3)cc2C(=O)NS(=O)(=O)c2cccc(N)n2)C(C)(C)C1 (single isomer, unassigned) [Compound 2069] | < 3 µM
C[C@@H]1CN(c2nc(C3CCC(C(F)(F)F)CC3)ccc2C(=O)NS(=O)(=O)c2cccnc2N)C(C)(C)C1 (single isomer, unassigned) [Compound 2077] | < 3 µM
CC(C)COc1ccn(-c2ccc(C(=O)NS(=O)(=O)c3cccnc3N)c(N3CC(C)CC34CCC4)n2)n1 (single isomer, unassigned) [Compound 2194, N-[(2-amino-3-pyridyl)sulfonyl]-6-(3-isobutoxypyrazol-1-yl)-2-(6-methyl-8-azaspiro[3.4]octan-8-yl)pyridine-3-carboxamide] | < 3 µM
CCC1(C)CC(C)CN1c1nc(-c2cc(F)cc(OCC(C)C)c2)ccc1C(=O)NS(=O)(=O)c1cccc(N)n1 (single isomer, unassigned) [Compound 2213, N-[(6-amino-2-pyridyl)sulfonyl]-2-(2-ethyl-2,4-dimethyl-pyrrolidin-1-yl)-6-(3-fluoro-5-isobutoxy-phenyl)pyridine-3-carboxamide] | < 3 µM
CC(C)(C)c1ccc(C(=O)NS(=O)(=O)c2cccc(N)n2)c(N2CCC(C3CCOCC3)C2(C)C)n1 (single isomer, unassigned) [Compound 2266, N-[(6-amino-2-pyridyl)sulfonyl]-6-tert-butyl-2-(2,2-dimethyl-3-tetrahydropyran-4-yl-pyrrolidin-1-yl)pyridine-3-carboxamide] | < 3 µM
CC(C)COc1cc(F)cc(-c2ccc(C(=O)NS(=O)(=O)c3cccc(N)n3)c(N3CC(C)CC34CCC4)n2)c1 (single isomer, unassigned) [Compound 2269, N-[(6-amino-2-pyridyl)sulfonyl]-6-(3-fluoro-5-isobutoxy-phenyl)-2-(6-methyl-8-azaspiro[3.4]octa N-8-yl)pyridine-3-carboxamide] | < 3 µM
CC(C)COc1cc(F)cc(-c2ccc(C(=O)NS(=O)(=O)c3cccc(N)n3)c(N3C[C@H](C(F)(F)F)CC3(C)C)n2)c1 (single isomer, unassigned) [Compound 2271, N-[(6-amino-2-pyridyl)sulfonyl]-2-(2,2-dimethyl-4-(trifluoromethyl)pyrrolidin-1-yl)-6-(3-fluoro-5-isobutoxy-phenyl)pyridine-3-carboxamide] | < 3 µM
CC(C)COc1cc(F)cc(-c2ccc(C(=O)NS(=O)(=O)N3CC[C@@H](N)C3)c(N3CCCC3(C)Cc3ccccc3)n2)c1 (single isomer, unassigned) [Compound 2325] | < 3 µM
CC1CN(c2nc(-n3ccc(OCC(C)(C)C)n3)ccc2C(=O)NS(=O)(=O)c2cccnc2N)C2(CCC2)C1 (single isomer, unassigned) [Compound 2358, N-[(2-amino-3-pyridyl)sulfonyl]-6-[3-(2,2-dimethylpropoxy)pyrazol-1-yl]-2-[6-methyl-8-azaspiro[3.4]octan-8-yl]pyridine-3-carboxamide] | < 3 µM
CC(C)COc1cc(F)cc(-c2ccc(C(=O)NS(=O)(=O)c3cccc(N)n3)c(C3CC(C)(C)CC3(C)C)n2)c1 (single isomer, unassigned) [Compound 2374, N-[(6-amino-2-pyridyl)sulfonyl]-6-(3-fluoro-5-isobutoxy-phenyl)-2-(2,2,4,4-tetramethylcyclopentyl)pyridine-3-carboxamide] | < 3 µM
CC(C)COc1cc(F)cc(-c2ccc(C(=O)NS(=O)(=O)c3cccc(N)n3)c(N3CC(C)CCC3C)n2)c1 (single isomer, unassigned) [Compound 2451, N-[(6-amino-2-pyridyl)sulfonyl]-2-(2,5-dimethyl-1-piperidyl)-6-(3-fluoro-5-isobutoxy-phenyl)pyridine-3-carboxamide] | < 3 µM
CC(C)COc1cc(F)cc(-c2ccc(C(=O)NS(=O)(=O)N3CCC(N)C3)c(N3CCCC3c3ccccc3)n2)c1 (single isomer, unassigned) [Compound 2477] | < 3 µM

Same assay, conditions: Table 3; compounds of Table 1 as modulators of CFTR activity; protocol not stated

EC30 | Structure (SMILES)
+++ (“+++” means <3 uM) | Cc1cc(C)c(Cn2nc(C(C)(C)C)cc2C(=O)C(C)S(=O)(=O)c2ccccc2)c(C)c1 (racemic) [Compound 139, 2-(benzenesulfonyl)-1-[5-tert-butyl-2-[(2,4,6-trimethylphenyl)methyl]pyrazol-3-yl]propan-1-one]
+++ (“+++” means <3 uM) | Cc1cc(C)c(Oc2nc(C(C)(C)C)ccc2C(=O)NS(=N)(=O)c2cccc(N)c2)c(C)c1 (single isomer, unassigned) [Compound 19, N-[(3-aminophenyl)sulfonimidoyl]-6-tert-butyl-2-(2,4,6-trimethylphenoxy)pyridine-3-carboxamide]
+++ (“+++” means <3 uM) | Cc1cc(C)c(Oc2nc(C(C)(C)C)ccc2C(=O)N[S@](=N)(=O)c2cccc(N)c2)c(C)c1 (single isomer, unassigned) [Compound 53, N-[(3-aminophenyl)sulfonimidoyl]-6-tert-butyl-2-(2,4,6-trimethylphenoxy)pyridine-3-carboxamide]
